The nature of data set [1]: Drug absorption in human at 50 uCi, po up to 12 hrs using 14C-labeled compound by scintillation counting method. It is filed as ADME, organism-based. Conditions: in vivo.
Data set [2] is described as follows: Oral bioavailability in human at 50 uCi up to 12 hrs using 14C-labeled compound by scintillation counting method. The note with it: in vivo. It is filed as ADME, organism-based.
A short description of data set [3]: Oral bioavailability in rat at 50 or 150 mg/kg/day administered through gavage for 14 consecutive days by HPLC analysis. The note with it: in vivo. The class given is ADME, organism-based.
Data set [4] has as its target NAD-dependent histone deacetylase SIR2 (Saccharomyces cerevisiae S288c, UniProt P06700). Description: Non-competitive inhibition of recombinant yeast glutathione-S-transferase-tagged SIRT2 using acetylated histone as substrate measured after 30 mins by fluorimetric analysis.
A further data set concerns Saccharomyces cerevisiae. Description: Growth inhibition of yeast.
Data set [5] addresses T1, NAD-dependent protein deacetylase sirtuin-1 (Homo sapiens, UniProt Q96EB6).
T1 sequence (Q96EB6 whole entry): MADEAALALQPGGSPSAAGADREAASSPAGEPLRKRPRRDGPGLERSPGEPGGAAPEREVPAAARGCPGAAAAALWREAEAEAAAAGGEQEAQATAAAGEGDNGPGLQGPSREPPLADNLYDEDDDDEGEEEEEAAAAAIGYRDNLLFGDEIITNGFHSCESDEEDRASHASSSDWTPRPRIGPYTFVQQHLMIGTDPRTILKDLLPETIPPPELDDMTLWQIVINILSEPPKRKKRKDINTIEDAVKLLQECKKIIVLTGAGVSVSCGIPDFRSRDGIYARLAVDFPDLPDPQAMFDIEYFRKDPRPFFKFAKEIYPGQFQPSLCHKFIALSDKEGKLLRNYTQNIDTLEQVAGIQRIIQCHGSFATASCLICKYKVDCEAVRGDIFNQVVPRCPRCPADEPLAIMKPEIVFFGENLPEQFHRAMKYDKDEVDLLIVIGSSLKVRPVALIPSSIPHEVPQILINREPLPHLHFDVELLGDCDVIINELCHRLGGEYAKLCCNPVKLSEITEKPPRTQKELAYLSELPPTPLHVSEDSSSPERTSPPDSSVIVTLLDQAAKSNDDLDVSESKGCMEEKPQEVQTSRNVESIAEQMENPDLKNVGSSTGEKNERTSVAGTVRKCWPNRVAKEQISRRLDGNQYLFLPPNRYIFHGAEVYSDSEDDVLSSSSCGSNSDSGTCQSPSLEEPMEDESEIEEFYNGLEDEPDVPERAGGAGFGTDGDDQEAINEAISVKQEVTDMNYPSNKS
The data set is described as follows: Inhibition of recombinant human SIRT1 assessed as deacetylation activity using fluorescent substrate in presence of NAD+ by fluorescence analysis.

Data set [6] has as its target T2, NAD-dependent protein deacetylase sirtuin-2 (Homo sapiens, UniProt Q8IXJ6).
T2 sequence (Q8IXJ6 whole entry): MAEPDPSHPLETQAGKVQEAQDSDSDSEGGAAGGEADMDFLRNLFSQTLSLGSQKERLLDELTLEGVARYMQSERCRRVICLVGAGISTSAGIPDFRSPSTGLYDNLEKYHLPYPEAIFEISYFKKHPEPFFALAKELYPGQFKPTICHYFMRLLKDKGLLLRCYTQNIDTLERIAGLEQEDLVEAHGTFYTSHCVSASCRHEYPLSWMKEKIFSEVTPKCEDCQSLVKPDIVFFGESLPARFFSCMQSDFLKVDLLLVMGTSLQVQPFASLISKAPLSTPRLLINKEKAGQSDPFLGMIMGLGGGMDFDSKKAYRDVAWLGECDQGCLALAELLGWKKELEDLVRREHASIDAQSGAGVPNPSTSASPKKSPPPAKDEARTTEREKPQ
The data set is described as follows: Inhibition of recombinant human SIRT2 assessed as deacetylation activity using fluorescent substrate in presence of NAD+ by fluorescence analysis.

Data set [7] has as its target T2, NAD-dependent protein deacetylase sirtuin-2. Description: Noncompetitive inhibition of human SIRT2 assessed as deacetylation activity using fluorescent substrate in presence of NAD+ by Lineweaver-Burk plot analysis.
The target is the same in data set [8]. The data set is described as follows: Competitive inhibition of human SIRT2 assessed as deacetylation activity using fluorescent peptide substrate in presence of NAD+ by Lineweaver-Burk plot analysis.
Data set [9] has the same target. The data set is described as follows: Inhibition of human N-terminal 6His-tagged SIRT2 assessed as inhibition of deacetylase activity using ZMAL as substrate measured after 4 hrs by Fluor de Lys assay.
The target of data set [10] is T1, NAD-dependent protein deacetylase sirtuin-1. Description: Inhibition of recombinant human SIRT1 assessed as inhibition of deacetylase activity using ZMAL as substrate measured after 4 hrs by Fluor de Lys assay.
The target is the same in data set [11]. The data set is described as follows: Inhibition of recombinant human SIRT1 (193 to 747 residues) expressed in Escherichia coli BL21 (DE3) using AMC-labeled p53-derived acetylated lysine as substrate in presence of NAD+ by HTS assay.
For data set [12] the target is unchanged. The data set is described as follows: Inhibition of full-length human N-terminal GST-tagged SIRT1 expressed in Escherichia coli BL21 (DE3) assessed as inhibition of deacetylase activity using ZMAL as substrate measured after 4 hrs by Fluor de Lys assay.
Data set [13] addresses T2, NAD-dependent protein deacetylase sirtuin-2. The data set is described as follows: Inhibition of full-length human N-terminal His6-tagged SIRT2 expressed in Escherichia coli BL21 (DE3) assessed as inhibition of deacetylase activity using ZMAL as substrate measured after 4 hrs by Fluor de Lys assay.
Data set [14] addresses T3, NAD-dependent protein deacetylase sirtuin-1 (Homo sapiens) (UniProt Q96EB6).
T3 sequence (whole entry): T1 sequence (Q96EB6 whole entry)
Description: Activation of recombinant human SIRT1 using TPE-GK(Ac)YDD as substrate at 1 to 50 uM by fluorescence assay relative to control.

Data set [15] in a line: Oral bioavailability in rat at 56 or 168 mg/kg/day administered through gavage for 14 consecutive days by HPLC analysis. Conditions: in vivo. The class given is ADME, organism-based.
Data set [16] in a line: Cytotoxicity against human breast cancer cells. The class given is functional. The note with it: Cancer cell lines.
A short description of data set [17]: Cytotoxicity against human prostate cancer cells. The class given is functional. The note with it: Cancer cell lines.
The nature of data set [18]: Cytotoxicity against human colon cancer cells. Conditions: Cancer cell lines. It is filed as functional.
A short description of data set [19]: Cytotoxicity against human lung cancer cells. It is filed as functional. The note with it: Cancer cell lines.
Data set [20] can be described thus: Cytotoxicity against human leukemia cells. It is filed as functional. Conditions: Leukemia cell.
Data set [21] can be described thus: Cytotoxicity against human kidney cancer cells. It is filed as functional. The note with it: Cancer cell lines.

Values after ≈ are worked out from the molar mass of the structure shown. Some results are limits rather than exact numbers.

NAD-dependent histone deacetylase SIR2, sequence (P06700 whole entry): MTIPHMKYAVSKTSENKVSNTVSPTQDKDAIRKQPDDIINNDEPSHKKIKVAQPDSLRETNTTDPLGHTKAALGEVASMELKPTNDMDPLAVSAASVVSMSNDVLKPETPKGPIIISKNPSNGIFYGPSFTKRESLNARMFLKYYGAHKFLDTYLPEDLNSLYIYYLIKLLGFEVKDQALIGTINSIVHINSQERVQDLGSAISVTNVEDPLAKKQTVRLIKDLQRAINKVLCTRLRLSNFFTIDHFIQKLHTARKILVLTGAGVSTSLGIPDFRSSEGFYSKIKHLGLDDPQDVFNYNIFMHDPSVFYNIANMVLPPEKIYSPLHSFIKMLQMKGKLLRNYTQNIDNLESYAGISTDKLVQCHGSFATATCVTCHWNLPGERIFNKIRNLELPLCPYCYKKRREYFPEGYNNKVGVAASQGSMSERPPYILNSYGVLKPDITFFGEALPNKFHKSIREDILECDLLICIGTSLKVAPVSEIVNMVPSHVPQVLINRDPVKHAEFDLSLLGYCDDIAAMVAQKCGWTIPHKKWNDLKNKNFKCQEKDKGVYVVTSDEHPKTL

Usually bioavailability stands for the share of a dose that reaches the circulation, judged against a reference dose that is usually intravenous. High values mean good availability, low ones poor availability. In data set [1], `Oc1ccc(/C=C/c2cc(O)cc(O)c2)cc1` [RESVERATROL] came in with a Fabs of 70%. Besides, the F in data set [2] is 0.5%. The compound further showed a bioavailability in data set [3] of 20%.

Usually IC50 stands for the concentration that gives 50% inhibition. Turning to `NC(=O)c1cccnc1` [NIACINAMIDE], the half-maximal inhibitory concentration (IC50) in [4] was less than 50 µM.

In turn, `CN(C)CCCCC(=O)Nc1ccc(NC(=S)NC(=O)c2ccc(C(C)(C)C)cc2)cc1` showed an IC50 in the data set on Saccharomyces cerevisiae of 30 µM.

Broadly, the Ki is a dissociation constant, usually derived from enzyme kinetics or from competition with a known ligand. Take `O=C(/C=C/c1ccc(O)c(O)c1)NC(Cc1c[nH]c2ccccc12)C(=O)O` (configuration not stated): the IC50 stood at 34 µM in data set [5] and 8.7 µM in data set [6]. Besides, the Ki in [7] came out at 9.8 µM; in [8] it was 5.3 µM.

For the compound `O=C1CC(=S)NC(=O)/C1=C/c1cc2ccccc2[nH]1`, the half-maximal inhibitory concentration (IC50) in data set [9] was less than 20.3 µM; in data set [10], 5.9 µM.

In the case of `Fc1cccc(-n2cc(CSC(=S)N3CCN(C(=S)SCc4cn(-c5ccccc5F)nn4)CC3)nn2)c1`, the IC50 in [11] was determined as 1080 nM.

Consider `Nc1cc(NC(=O)Nc2cccc(C(=O)Nc3cccc(C(=O)Nc4ccc(S(=O)(=O)O)c5cc(S(=O)(=O)O)cc(S(=O)(=O)O)c45)c3)c2)cc(C(=O)Nc2cccc(C(=O)Nc3ccc(S(=O)(=O)O)c4cc(S(=O)(=O)O)cc(S(=O)(=O)O)c34)c2)c1`, for which the IC50 in data set [12] was found to be 93 nM; in [13] it was 2260 nM.

As for `CC(C)=CCC[C@](C)(O[C@@H]1O[C@H](CO[C@@H]2OC[C@H](O)[C@H](O)[C@H]2O)[C@@H](O)[C@H](O)[C@H]1O)[C@H]1CC[C@]2(C)[C@@H]1[C@H](O)C[C@@H]1[C@@]3(C)CC[C@H](O[C@@H]4O[C@H](CO)[C@@H](O)[C@H](O)[C@H]4O[C@@H]4O[C@H](CO)[C@@H](O)[C@H](O)[C@H]4O)C(C)(C)[C@@H]3CC[C@]12C`, the Activity in data set [14] was in the range of 8 to 152%.

For `COc1cc(/C=C/c2ccc(O)cc2)cc(OC)c1` [PTEROSTILBENE], the bioavailability in [15] was found to be 80%.

A word on the GI50: it is the concentration giving 50% growth inhibition. Higher therefore signals lower sensitivity of the cells. As to `COc1ccc2c3c(c4cc(OC)c(OC)cc4c2c1)CN1CCCC[C@@H]1C3`, the GI50 in [16], in [17], in data set [18], in data set [19], in data set [20] and in data set [21] was 0.0002 to 0.1 µg/mL (≈ 0.00053 to 0.265 µM) in each case.
